Data reported in US20070059720A9 (priority 2004, published 2007).

Legend:
Assay type in all cases: cell-based, human
EBP50 = assay: Immunoblot of EBP50 in MCF-7 cells; conditions: 24 hours
Protocol: (§1) In Panel B, immunoprecipitation of E or T treated MCF-7 cells was performed followed by immunoblot analysis.

ezrin = assay: Immunoblot of ezrin in MCF-7 cells; conditions: 24 hours
Protocol: as §1

cyclin D1 (CCND1) = assay: Immunoblot of CCND1 in MCF-7 transfectants; conditions: MKP3 overexpressing cells; 2 hours
Protocol: Cells grown in 100 mm dishes were starved in phenol red-free (PRF), serum-free MEM (Specialty Media, Phillipsburg, N.J.) for 48 hours, and were then treated for 2 hours with vehicle (ethanol), estrogen (100 nM, 20), or OHT (100 nM). After treatment, cells were rinsed twice with ice-cold phosphate-buffered saline (PBS) and were then lysed immediately with 200 μl of cell lysis buffer (20 mM Tris HCl, pH 7.4, 150 mM NaCl, 1 mM B-glycerophosphate, 1 mM sodium orthovanadate, and 10% glycerol plus 1:100 proteinase inhibitor cocktail III) (Calbiochem, LaJolla, Calif.) per 100 mm tissue culture. The cell lysates were cleared by centrifugation at 16,100×g for 10 minutes at 4° C. Protein concentration was determined with the BCA Protein Assay kit (Pierce, Rockfold, Ill.) according to the manufacturer's directions. Equal amount of cell extracts were resolved under denaturing conditions by electrophoresis in 8-10% polyacrylamide gels containing sodium dodecyl sulfate (SDS-PAGE), and transferred to nitrocellulose membranes by electroblotting (Schleicher & Schuell, Keene, NH). […]
As expected with two hours of estrogen treatment, no induction of the two PR isoforms were detected in either the control vector (Con 1 and 2), or in the MKP3-transfected cells (FIG. 11A). […]

## C[C@]12CC[C@@H]3c4ccc(O)cc4CC[C@H]3[C@@H]1CC[C@@H]2O [E2, 17β-Estradiol]
EBP50
  EBP50 levels: similarly induced
ezrin
  ezrin levels: similarly induced

## CC/C(=C(\c1ccccc1)c1ccc(OCCN(C)C)cc1)c1ccccc1 [Tam, tamoxifen]
Cyclin D1 (CCND1)
  CCND1 levels: High levels
